Test results published in patent publication US20240277670A1, “SAFE USE OF MMP-12 INHIBITOR” (Foresee Pharmaceuticals Co., Ltd., priority 2021, published 2024).
Entries after “also recorded” stand apart in the source; their conditions may differ. Where two headings read alike, the source gives them in different places.

Columns and labels:
Assay type in all cases: in vivo, human
[1] = Multiple ascending dose (MAD) part, safety and tolerability; settings: for Adverse events possibly-related to drug administration: Multiple ascending dose, ASD formulation
Experimental: Three cohorts of eight subjects each (six on active and two on placebo) were enrolled and received the following treatments orally: 100 mg, 200 mg, and 400 mg ASD-in-Capsule b.i.d. (one dose on Days 1 and 8, twice-daily doses from Days 2 to 7) (FIG. 4).
(§1) Safety and tolerability were assessed at pre-specified timepoints throughout the studies by AEs reporting, vital signs measurements, physical examination, laboratory tests, and ECG examinations.
(§2) Safety and tolerability data were evaluated for the treated population (all participants who took at least one dose of study medications). […] Descriptive statistics were used to evaluate the for safety and tolerability data and for plasma concentrations and PK parameters of the compound of formula (I).

[2] = Food effect (FE) part, plasma pharmacokinetics; settings: for AUC / AUC(0-inf) / Cmax / AUC(0-t) / half-life / Vd/F / Tmax: human, plasma, po, 200 mg; for AUC: read-out: AUC0- GM; for Vd/F: read-out: Vz/F; for Tmax: median
Experimental: (§3) In this part, eight subjects received 200 mg ASD-in-Capsule orally as a single dose in a randomized way, once under fasting conditions and once after the intake of a high fat breakfast, with a wash-out period of one week between successive dosing (FIG. 4).
Blood samples were collected post-dosing on Day 1 (at 0.5, 1, 2, 3, 4, 6, 8, 12, and 16 hours) and Day 8 (at 0.5, 1, 2, 3, 4, 6, 8, 10, 12, 16, 20, 24, 30, 36, and 48 hours) as well as immediately pre-morning dose on Days 2-7 and 2 hours post-morning dose on Days 4 and 6. Within 15 minutes of collection, blood samples were centrifuged at 2000 rpm for 10 minutes at 4° C., and, subsequently, the plasma was aliquoted, frozen, and stored at −70° C. pending PK analyses.
The samples were subjected to liquid chromatography followed by analyses by tandem mass spectrometry. The lower limit of quantification for the compound of formula (I) was 5 ng/mL.
The plasma PK parameters were derived by non-compartmental analyses using Phoenix® WinNonlin® version 6.3 or higher (Pharsight Corporation Inc., Mountain View, CA, USA). PK variables were summarized using arithmetic mean, standard deviation, median, minimum, maximum, the percent coefficient of variation, geometric mean, and a two-sided 95% confidence limit of the arithmetic mean and the geometric mean.
For the evaluations of food effect on the PK profile of the compound of formula (I), the analysis of variance (ANOVA) model included sequence, treatment, and period as fixed effects and subject nested within sequence as a random effect using the SASR mixed model procedure. Each ANOVA included calculation of Least Squares Means (LSM), the difference between LSM under fed condition (Test) over fasted condition (Reference), and the standard error associated with this difference.

[3] = Food effect (FE) part, safety and tolerability; settings: for Adverse events possibly-related to drug administration: 200 mg, ASD formulation
Experimental: as §3, §1, §2

[4] = Single ascending dose (SAD) study, safety and tolerability
Experimental: Eight cohorts of eight subjects each (six on active and two on placebo) were enrolled. Two different oral formulations of the compound of formula (I) were tested. The initial formulation was neat active pharmaceutical ingredient (API) filled in oral capsules of the compound of formula (I) (API-in-Capsule) which was tested at three dose levels: 200 mg, 400 mg, and 800 mg. Subsequently, an improved oral formulation was tested, the amorphous solid dispersion (ASD) of the compound of formula (I) (ASD-in-Capsule) at five dose levels: 50 mg, 100 mg, 200 mg, 350 mg, and 450 mg (FIG. 1).
as §1
Safety and tolerability data were evaluated for the treated population (all participants who took at least one dose of study medications). […] Descriptive statistics were used to evaluate the safety and tolerability data and for plasma concentrations and PK parameters of the compound of formula (I).

[5] = 200 mg single oral dose, fed over fasted, geometric least-squares mean ratio
[6] = Treatment D: single oral dose 200 mg ASD-in-Capsule, fasted, mean
[7] = Treatment E: single oral dose 200 mg ASD-in-Capsule, fed (high-fat, high-calorie breakfast), mean

With `Cc1cccc(COc2ccc(Sc3ccoc3C3NC(=O)NC3=O)cc2)c1` (stereo not shown) [compound of formula (I)] the “Total number of AEs possibly related to treatment” value ([1]; MAD study, all dose levels) was “seven”, the “Adverse events possibly-related to drug administration” value (shortened to “Adverse events possibly-related”) ([1]; 100 mg) was “fatigue; also recorded: cough” and the “Adverse events possibly-related” value ([1]; 200 mg) was “eye irritation; also recorded: erythema; also recorded: dizziness; also recorded: skin rash”. For the same molecule, the “Severe or serious AEs” value ([1]; Study II (MAD and FE parts)) was “No severe or serious AEs were reported”, the “Changes from baseline in weight, vital signs, physical examination, laboratory or ECG data” value ([1]; Study II (MAD and FE parts), any time point) was “No clinically relevant changes” and the “Safety and tolerability, overall” value ([1]; across all dose levels and dosing regimens studied) was “safe and generally well-tolerated”. The “AUC0- GMR Treatment E/D” value [2, 5] was 103.42 percentage, the “AUC0-inf GMR Treatment E/D” value [2, 5] was 102.76 percentage and the “Cmax GMR Treatment E/D” value [2, 5] was 74.53 percentage. For the same molecule, the CL/F [2, 6] was 32.3 L/h, the Kel [2, 6] was 0.0796 h⁻¹ and the CL/F [2, 7] was 32.3 L/h. The Kel [2, 7] was 0.0917 h⁻¹, the AUC ([2]; Treatment D: 200 mg single oral dose, fasted, geometric least-squares mean) was 6260 ng·h/mL and the AUC(0-inf) ([2]; Treatment D: 200 mg single oral dose, fasted, geometric least-squares mean, read-out: AUC0-inf GM) was 6400 ng·h/mL. It also gave a Cmax ([2]; Treatment D: 200 mg single oral dose, fasted, geometric least-squares mean, read-out: Cmax GM) of 1020 ng/mL, an AUC(0-t) [2, 6] of 6490 ng·h/mL and a half-life [2, 6] of 9.36 h. For the same molecule, the AUC(0-inf) ([2]; Treatment D: single oral dose 200 mg ASD-in-Capsule, fasted, mean, read-out: AUC0-inf) was 6620 ng·h/mL, the Cmax ([2]; Treatment D: single oral dose 200 mg ASD-in-Capsule, fasted, mean, read-out: Cmax) was 1050 ng/mL and the Vd/F [2, 6] was 446 L. It also gave a Tmax ([2]; Treatment D: single oral dose 200 mg ASD-in-Capsule, fasted) of 1 h, an AUC ([2]; Treatment E: 200 mg single oral dose, fed, geometric least-squares mean) of 6480 ng·h/mL and an AUC(0-inf) ([2]; Treatment E: 200 mg single oral dose, fed, geometric least-squares mean, read-out: AUC0-inf GM) of 6580 ng·h/mL. It also gave a Cmax ([2]; Treatment E: 200 mg single oral dose, fed, geometric least-squares mean, read-out: Cmax GM) of 764 ng/mL, an AUC(0-t) [2, 7] of 6800 ng·h/mL and a half-life [2, 7] of 8.09 h. It also gave an AUC(0-inf) ([2]; Treatment E: single oral dose 200 mg ASD-in-Capsule, fed (high-fat, high-calorie breakfast), mean, read-out: AUC0-inf) of 6900 ng·h/mL, a Cmax ([2]; Treatment E: single oral dose 200 mg ASD-in-Capsule, fed (high-fat, high-calorie breakfast), mean, read-out: Cmax) of 787 ng/mL and a Vd/F [2, 7] of 383 L. For the same molecule, the Tmax ([2]; Treatment E: single oral dose 200 mg ASD-in-Capsule, fed (high-fat, high-calorie breakfast)) was 2.5 h, the “Adverse events possibly-related” value ([3]; Food effect fasting status) was “headache” and the “Adverse events possibly-related” value ([3]; Food effect fed status) was “headache”. For the same molecule, the “Total number of AEs possibly related to treatment” value ([3]; food effect part, in one subject) was “two”, the “Safety and tolerability, overall” value ([4]; across all dose levels studied) was “safe and generally well-tolerated” and the “Severe or serious AEs” value ([4]; all dose levels and both formulations) was “No severe or serious AEs were reported”. The “Changes from baseline in weight, vital signs, physical examination, laboratory or ECG data” value ([4]; any time point) was “No clinically relevant changes”.
